Columns and labels:
SU_MB002 = assay: PrestoBlue cell viability, 72-hour treatment, limiting dilution; type: cell-based, human; settings: SU_MB002, media with uridine hydrochloride (100 μM)
Protocol: SU_MB002, NSC194, NSC197 and NSC201FT, MBT375 and MED411FHTC were maintained in Neurocult Complete (NCC) media (Stem Cell Technologies; catalogue #05751). D425 and D458 were maintained in Dulbecco's […] (DMEM) containing 10% fetal bovine serum (FBS). HD-MB03 were maintained in NCC containing 10% FBS. All cell lines were conditioned in NCC for a minimum of 48 hours before experimentation. SU_MB002 and HD-MB03 G3MB-MYC PDOX were obtained from collaborators as kind gifts and are frequently passaged in vivo. SU_MB002, a treatment-refractory group 3 MB acquired at autopsy was received from Dr. Yoon-Jae Cho. Dr. Till Milde provided HD-MB03, a treatment-naïve group 3 MBs. ICB1299 group 4 MB cells were obtained as a gift from Silvia Marino's laboratory^62. MBT375 was established in-house from a surgical specimen of group 4 MB, which was engrafted in the cerebellum of mice for serial propagation. Nanostring genotyping was used to confirm group 4 medulloblastoma identity. MED411FHTC PDOX were procured from Dr. Olson's brain tumor research lab. D425 and D458 were obtained from the ATCC. All cell lines were fingerprint verified by short tandem repeat (STR) profiling. NSC194, NSC197 and NSC201FT were derived in-house from donor fetal brain tissues^63.
For assessment of viability, cells were seeded into 96-well plates at a density of 1,000 cells per well. Viability was measured by adding PrestoBlue™ diluted 1:10 (ThermoFisher Scientific; Catalogue #A13261) followed by a 4-hour incubation. Relative fluorescence intensity was determined via background correction. To assess tumorsphere forming capacity, cells were seeded at a low density (200 cells per well) and incubated for 3-5 days. Tumorspheres were manually counted thereafter.

[1] = tested on: ERK1/2, c-Jun and 4EBP1 phosphorylation in SU_MB002 cells; assay: Phosphokinome proteome profiler array and time-course Western blotting; type: cell-based, human
Protocol: To identify signaling changes accompanying DHODH inhibition in an unbiased fashion, changes in the phosphokinome of SU_MB002 cells were measured after treatment with BAY. […] Time-course Western blotting confirmed that ERK1/2 becomes phosphorylated within 24 h of BAY treatment, peaks at 48 h, and then decreases in expression at 72 h (FIG. 3I-J). […] These findings corroborated previous work that had implicated ERK1/2 silencing of mTORC1-mediated translation in activating apoptosis in cancer cells under severe metabolic stress^38. Indeed, both pharmacological inhibition or DHODH KO in G3MB-MYC induced both Go cell cycle arrest, determined via propidium iodide assessment of DNA content, (FIG. 3K, FIG. 8N) and apoptosis, determined via cleaved caspase 3 expression (FIG. 3I-J, FIG. 8M) and Annexin V staining (FIG. 3L, FIG. 8O). Such findings were also consistent with the enrichment of the hallmark apoptosis gene set in DHODH KO SU_MB002 cells (FIG. 3G). […] Pyrimidine starvation induces a metabolic stress response, which activates ERK1/2-mediated signaling, leading to suppression of mTORC1 activity, and initiation of apoptosis.
Protein lysates were isolated from approximately 500,000-1,000,000 cells. Pellets were rinsed with PBS and then lysed in RIPA buffer containing HALT™ protease inhibitor cocktail (ThermoFisher). Protein concentrations were quantified using the Bradford Assay (BioRad). Protein size was resolved via SDS-PAGE and then transferred to PVDF for immunoblotting. Rabbit polyclonal anti-DHODH (Cell Signaling Technologies; catalogue #80981), rabbit monoclonal anti-EGR1 (Cell Signaling Technologies; catalogue #4145), rabbit polyclonal anti-phospho-ERK1/2 Thr202/Tyr204 (Cell Signaling Technologies; catalogue #9101), rabbit monoclonal anti-phospho-4E-BP1 Thr37/46 (Cell Signaling Technologies; catalogue #2855) were used at a 1:1000 dilution. Mouse monoclonal anti-GAPDH (Abcam; catalogue #ab8245) was used at a 1:5000 dilution. For development, horse-radish peroxidase-conjugated secondary anti-mouse (BioRad; catalogue #1706516) and anti-rabbit antibodies (BioRad; catalogue #1706515) were used with BioRad Clarity ECL reagents. Quantification was performed by analyzing mean pixel density of each band and then normalizing to GAPDH loading control. The proteome profiler array was obtained from R&D systems (catalogue ARY003C) and performed according to manufacturing guidelines, using 400 μg cellular lysate for each sample.

HD-MB03 PDOX = assay: Orthotopic PDOX model, IVIS bioluminescence and survival; type: in vivo, mice; settings: HD-MB03, regimens R1 and R2 vs vehicle
Protocol: The treatment-naïve, patient-derived cell line, HD-MB03, was orthotopically engrafted into immunocompromised mice. Four days later, tumors were readily detectible via bioluminescence imaging. Thereafter mice were randomized into three cohorts, which were treated with either the vehicle or one of two BAY treatment regimens (R1 and R2; FIG. 5B).
PDOX were generated by engrafting 25,000 tumor cells (both SU_MB002 and HD-MB03 cell lines), suspended in 5 μL PBS, directly into the mouse cerebrum. Flank xenografts were generated by engrafting 2,000,000 tumor cells suspended in a 100 μL solution of PBS/Matrigel® (1:1 v/v). For preclinical studies, cells were engineered to express enhanced firefly luciferase. […] Flank tumors were isolated at matched time points and formalin fixed for 48 hours, paraffin embedded (FFPE) and sectioned for follow-up analysis. Tumor area was manually measured in H&E-stained sections of FFPE tissues using ImageJ.
For imaging via the in vivo imaging system (IVIS), mice were sedated with isoflurane gas and then administered luciferin substrate (150 mg/kg in PBS) via subcutaneous injection. After 10 minutes, bioluminescent signal (photons per second; p/s) was quantified using Living Image software.

[2] = SU_MB002, BAY-treated vs vehicle, 48 h
[3] = SU_MB002, time-course Western blotting

CCn1c(CO)nn(-c2cc(O[C@@H](C)C(F)(F)F)c(C(=O)Nc3c(F)cccc3Cl)cc2F)c1=O [BAY2402234]
tumor cell proliferation and viability with uridine supplementation (SU_MB002): rescues | phosphorylation of ERK1/2 (T202/Y204; T185/Y187) [1, 2]: Increased phosphorylation | phosphorylation of c-Jun (S63) [1, 2]: Increased phosphorylation | time of peak ERK1/2 phosphorylation [1, 3]: 48 h | time until ERK1/2 becomes phosphorylated [1, 3]: ≤ 24 h | phosphorylation of 4EBP1 ([1]; time-course BAY treatment): decreased in a time-dependent fashion | overall survival (HD-MB03 PDOX): prolonged overall survival | PDOX growth (IVIS bioluminescence) (HD-MB03 PDOX; oral gavage): significantly attenuated

From US20250152559A1, “METHODS FOR TREATING MYC-AMPLIFIED CANCER” (The Governing Council of the University of Toronto, priority 2023, published 2025)
